The text below walks through data of US20070156046A1, “Method of enriching hyperpolarized atom nuclei and an apparatus for implementing the method” (priority 2004, published 2007).

Data set [1] in a line: ^129Xe densities in the solvent in the two-stage enrichment apparatus. The format is physicochemical. Conditions: solvent toluol/ethanol. The protocol: A gas mixture 1 with hyperpolarized atomic nuclei flows from a polarizer (not shown) into a first chamber 2 containing a cooled solvent. Chamber 2 has means for cooling the solvent. The solvent containing the gas mixture is thereby cooled to-a temperature T1, of, e.g. 180° K.
The gas components are enriched in chamber 2 according to their solubility in the solvent, and thus separated from one another. The unnecessary components of the mixture are released through valve 3. The solvent enriched with the hyperpolarized atomic nuclei is guided through a connection line out of chamber 2 into a further chamber 5. Chamber 5 comprises means for degassing, such as an apparatus for producing ultrasound and/or heating.
Chamber 5 thus represents a degassing chamber 5 for the hyperpolarized atomic nuclei from the solvent. In chamber 5, a gas pressure of the originally dissolved gas arises due to the degassing of the hyperpolarized atomic nuclei via the solvent. The gas pressure is determined by the partial pressure of the hyperpolarized atomic nuclei (gas component) in solvent chamber 2, and the ratio of the solubilities of this gas component in the solvent at temperatures T1 in chamber 2 and T2 in chamber 5.
Following degassing in chamber 5, the solution and degassing process may be repeated, as represented in FIG. 2 by continuous lines. For this, starting from chamber 5 at the end of the first enrichment stage, the gas with the hyperpolarized atomic nuclei is guided into chamber 6, where it is cooled to the temperature T1. Following enrichment in the solvent, the gas is conducted into chamber 8 with a temperature of T2 for degassing. Chamber 8, again, has a sufficient volume.
The following ^129Xe densities in the solvent (toluol/ethanol) may be set at different temperatures: […]

The nature of data set [2]: solubility (Ostwald coefficient) of ^129Xe in toluol and ethanol depending on the temperature of the solvent. Conditions: for increase of the density compared to the gas phase: 180° K; for density of ^129Xe compared with the gas phase: about 240° K. The format is physicochemical. The procedure: Solubility is defined as the density of the hyperpolarized gas in the solvent relative to the density of the hyperpolarized gas in the gas chamber situated above a given temperature and pressure. The solubility is also referred to as the Ostwald coefficient.
An even higher solubility of ^129Xe in the solvent is obtained by cooling to temperatures of 180° K, thereby obtaining a 100-fold increase of the density in both toluol and ethanol compared to the gas phase. Further cooling by just a few degrees Kelvin already results in an increase of the Ostwald coefficient to a value of 200 (FIG. 2).

On to `[Xe]` [^129Xe, xenon], for which the “pXe, Sol, Stage 1 (Chamber 2)” value in data set [1] (T = 180°K) is “pXe, Sol −7.0 bar”; in data set [1] (T = 200°K) it was “pXe, Sol −2.1 bar”; in data set [1] (T = 240°K), “pXe, Sol −0.7 bar”. For the same compound, the “pXe, Sol, Stage 2 (Chamber 6)” value in data set [1] (T = 180°K) is reported as “˜20 bar”; in data set [1] (T = 200°K) it was “˜10 bar”; in data set [1] (T = 240°K), “˜3.5 bar”. Besides, the “increase of the density compared to the gas phase” value in data set [2] (in ethanol) and in data set [2] (in toluol) was 100 fold throughout. For the same compound, the “density of ^129Xe compared with the gas phase” value in data set [2] (in ethanol) and in data set [2] (in toluol) was “ten times higher” each time. Also, the Ostwald coefficient entry in data set [2] (solvent ethanol, standard conditions (293° K, 1 bar)) is “about 2.5”; in data set [2] (solvent toluol, standard conditions (293° K, 1 bar)), “about 5”; in data set [2] (toluol and ethanol, further cooling by a few degrees Kelvin below 180° K), 200. Further, the “solubility or Ostwald coefficient compared to at room temperature” value in data set [2] (temperature of 273° K, toluol and ethanol (FIG. 1)) is recorded as “clear increase”.
